Source: BindingDB's records for patent US10954228 (The Trustees of The University of Pennsylvania, 2021)

biological target: L-lactate dehydrogenase A chain (Homo sapiens, UniProt P00338); experiment: Biochemical Assay
Method: Test compounds were placed in a Greiner Bio-One (Monroe, N.C.) 1536-well black solid bottom assay plate. 200 millimolar (mM) Tris HCl, pH 7.4, 100 micromolar (μM) EDTA and 0.01% TWEEN-20, final concentration, was used as the assay buffer. The LDHA reagent was 2 nanomolar (nM) Human LDHA (Meridian Life Science, Inc., Memphis, Tenn.), final concentration, in assay buffer. The substrate reagent was 0.06 mM NADH and 0.2 mM sodium pyruvate, final concentration, in assay buffer. The resazurin/diaphorase coupling reagent was 0.037 mM resazurin and 0.133 milligrams per milliliter (mg/mL) diaphorase, final concentration, in assay buffer. The inhibition of LDHA activity was measured by fluorescence emission.

IC50	Structure (SMILES)
< 100 nM	CCC#Cc1cc(-c2nn(-c3nc(C(=O)O)cs3)c(CC3CC3)c2Cc2ccc([S+](N)(=O)[O-])c(F)c2)ccc1F [US10954228, Compound 109]
100 to 1000 nM	Cc1ccc(C#Cc2cccc(-c3nn(-c4nc(C(=O)O)cs4)c(C4CC4C4CC4)c3Cc3ccc([S+](N)(=O)[O-])c(F)c3)c2)s1 (stereo not given) [US10954228, Compound 134]
< 100 nM	NS(=O)(=O)c1ccc(Cc2c(-c3cccc(C(=O)N4CCCC4)c3)nn(-c3nc(C(=O)O)cs3)c2CC2CC2)cc1 [US10954228, Compound 145]
< 100 nM	CC(C)(C)NC(=O)c1cc(-c2nn(-c3nc(C(=O)O)cs3)c(CC3CC3)c2Cc2ccc([S+](N)(=O)[O-])c(F)c2)ccc1F [US10954228, Compound 147]
< 100 nM	CC(C)(C)NC(=O)c1cccc(-c2nn(-c3nc(C(=O)O)cs3)c(CC3CC3)c2Cc2ccc([S+](N)(=O)[O-])cc2)c1 [US10954228, Compound 188]
< 100 nM	CN(C)c1ccc(-c2cc(-c3nn(-c4nc(C(=O)O)cs4)c(CC4CC4)c3Cc3ccc(S(N)(=O)=O)c(F)c3)ccc2F)cc1 [US10954228, Compound 190]
< 100 nM	NS(=O)(=O)c1ccc(Cc2c(-c3ccc(F)c(-c4cccc(F)c4)c3)nn(-c3nc(C(=O)O)cs3)c2CC2CC2)cc1F [US10954228, Compound 196]
< 100 nM	CC(C)c1cnc(-c2cccc(-c3nn(-c4nc(C(=O)O)cs4)c(CC4CC4)c3Cc3ccc(S(N)(=O)=O)c(F)c3)c2)nc1 [US10954228, Compound 216]
< 100 nM	CC(C)c1ccc(-c2cccc(-c3nn(-c4nc(C(=O)O)cs4)c(CC4CC4)c3Cc3ccc(S(N)(=O)=O)c(F)c3)c2)nc1 [US10954228, Compound 218]

Structure (SMILES)	IC50
CC(C)c1ccc(-c2cc(-c3nn(-c4nc(C(=O)O)cs4)c(CC4CC4)c3Cc3ccc(S(N)(=O)=O)c(F)c3)ccc2F)cc1 [US10954228, Compound 199]	< 100 nM
